According to ChEMBL document CHEMBL5729664, “Substituted pyridine derivatives as SARM1 inhibitors” (2023):

assay: Biological Assay: Each reaction was run at a volume of 20 μL containing 50 μM compound (dissolved in DMSO; final concentration of DMSO is 1% v/v), 40 nM human SARM1 (50-724), 0.3 mM NMN, 20 μM NAD, 1 mM TCEP, 25 mM HEPES pH 7.4, 10 mM KCl and 10 mM MgCl2. The reaction was incubated at room temperature for 60 minutes and quenched with 20 μL of 0.4% formic acid. The samples were run on Agilent HPLC 1260 Infinity II with Synergi 2.5 μM Fusion-RP 100 Å (100×3.0 mm) LC column from Phenomenex. Total run time for each sample was 4 minutes. The run was isocratic with 1.5% methanol in 40 mM ammonium acetate pH 6.0. Samples were run at a flow rate of 0.8 ml/min at 55° C. Peak areas of NAD and NAM were determined using OpenLAB CDS (Chem Station edition) software. For dose-response, the compound was diluted serially 1:3 in DMSO and added to the reaction starting at a final compound concentration of 100 μM in 1% DMSO.

IC50	Compound
in the range around 55 µM	OC(c1ncc(Cc2ccncc2)[nH]1)(c1cncs1)C(F)(F)F (stereo not drawn)
in the range around 55 µM	NC(c1nc(Cc2ccncc2)cs1)C(F)(F)F (stereo not drawn)
< 1 µM	C[C@H](c1ccncc1)c1c[nH]c(CC(F)(F)F)n1
in the range around 5.5 µM	COC(c1ncc(Cc2ccncc2)[nH]1)C(F)(F)F (stereo not drawn)
< 1 µM	O[C@@H](c1ncc(Cc2ccncc2)[nH]1)C(F)(F)F
in the range around 5.5 µM	O[C@H](C1N=CC(Cc2ccncc2F)=N1)C(F)(F)F (stereo partly drawn)
in the range around 5.5 µM	CN[C@@H](c1ncc(Cc2ccncc2)[nH]1)C(F)(F)F
< 1 µM	Cc1cnccc1Cc1c[nH]c([C@H](O)C(F)(F)F)n1
in the range around 5.5 µM	O[C@H](c1ncc(Cc2ccncc2)[nH]1)c1nccs1
in the range around 5.5 µM	OC(c1ccccn1)c1ncc(Cc2ccncc2)[nH]1 (stereo not drawn)
< 1 µM	OC(c1nc(Cc2ccncc2Cl)c[nH]1)C(F)(F)F (stereo not drawn)
in the range around 5.5 µM	CNC(c1ncc(Cc2ccncc2)[nH]1)C(F)(F)F (stereo not drawn)

The remaining lines, values behind:

Compound	IC50
CC(O)(c1nc(Cc2ccncc2)c[nH]1)C(F)(F)F (stereo not drawn)	in the range around 5.5 µM
C[C@@H](c1ccncc1)c1c[nH]c([C@H](O)C(F)(F)F)n1	in the range around 55 µM
Cc1cnccc1Cc1cnc([C@@H](O)c2cncs2)[nH]1 (single isomer, unassigned)	in the range around 55 µM
O[C@H](c1ncc(Cc2ccncc2)[nH]1)C(F)(F)F	< 1 µM
O[C@@H](c1nc(Cc2ccncc2)c[nH]1)c1cncs1	< 1 µM
CC(c1ccncc1)c1ccc(CC(F)(F)F)[nH]1 (stereo not drawn)	in the range around 5.5 µM
CC(c1ccncc1)c1c[nH]c(CC(F)(F)F)n1 (stereo not drawn)	< 1 µM
OC(C1N=CC(Cc2ccncc2F)=N1)C(F)(F)F (stereo not drawn)	< 1 µM
C[C@@H](c1ccncc1)c1c[nH]c([C@@H](O)C(F)(F)F)n1	< 1 µM
N[C@@H](c1nc(Cc2ccncc2)c[nH]1)C(F)(F)F	< 1 µM
CN(C)C(c1ncc(Cc2ccncc2)[nH]1)C(F)(F)F (stereo not drawn)	in the range around 55 µM
